Assay [1] deals with T1, CDK4 protein kinase (GST-CDK4(1-303 end)) (Homo sapiens, UniProt P11802).
T1 construct: GST-CDK4(1-303 end); GST (N)
Description: CDK4 protein kinase activity, Caliper mobility shift assay. The format is biochemical. Conditions: substrate Peptide FAM-P8, 28° C. for 3 h. The procedure: (§1) Activity Assay: The CDK4 protein kinase activity was measured using the Caliper mobility shift assay (see J. Biomol. Screen, 2009, PP31). The test compound was dissolved in DMSO and diluted with a kinase buffer solution (20 mM HEPES-pH 7.5, 0.01% Triton X-100, 10 mM MgCl2, 2 mM DTT) and 5 μL of the compound at 5-fold final concentration of reaction dissolved in 10% DMSO was added in a 384-well plate. The compound-free control well was 5 μL of 10% DMSO, and the no-activity control well was 5 μL of kinase buffer. 10 μL of a 2.5-fold diluted CDK4 enzyme solution (GST-CDK4(1-303 end)) was added and incubated at room temperature for 10 min, and then 10 μL of the 2.5-fold diluted substrate solution Peptide FAM-P8 was added. The reaction was stopped by adding 25 μL of stop solution after incubation at 28° C. for 3 h, and the conversion rate data was read on a Caliper EZ Reader II (Caliper Life Sciences) and the conversion rate was converted to inhibition rate data according to above method. Among them, the inhibition rate %=(max−conversion)/(max−min)×100%.

Assay [2] has as its target T2, CDK6 protein kinase (GST-CDK6(1-326 end)) (Homo sapiens, UniProt Q00534).
T2 construct: GST-CDK6(1-326 end); GST (N)
The assay can be described thus: CDK6 protein kinase activity, Caliper mobility shift assay. The format is biochemical. As to conditions: substrate Peptide FAM-P8, 28° C. for 3 h. The procedure: as §1, with “CDK6” for “CDK4”, “(GST-CDK6(1-326” for “(GST-CDK4(1-303”

T1 sequence (P11802 whole entry): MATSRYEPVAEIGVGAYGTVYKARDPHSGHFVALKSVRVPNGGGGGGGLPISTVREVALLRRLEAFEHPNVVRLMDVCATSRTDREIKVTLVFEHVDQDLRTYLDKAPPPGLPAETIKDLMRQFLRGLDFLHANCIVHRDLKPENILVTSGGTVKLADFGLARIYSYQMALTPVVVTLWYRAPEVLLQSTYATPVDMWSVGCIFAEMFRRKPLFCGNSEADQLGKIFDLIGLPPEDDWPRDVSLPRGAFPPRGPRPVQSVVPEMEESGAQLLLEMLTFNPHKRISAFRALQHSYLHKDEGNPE
T1 sequence (P30281 whole entry partner): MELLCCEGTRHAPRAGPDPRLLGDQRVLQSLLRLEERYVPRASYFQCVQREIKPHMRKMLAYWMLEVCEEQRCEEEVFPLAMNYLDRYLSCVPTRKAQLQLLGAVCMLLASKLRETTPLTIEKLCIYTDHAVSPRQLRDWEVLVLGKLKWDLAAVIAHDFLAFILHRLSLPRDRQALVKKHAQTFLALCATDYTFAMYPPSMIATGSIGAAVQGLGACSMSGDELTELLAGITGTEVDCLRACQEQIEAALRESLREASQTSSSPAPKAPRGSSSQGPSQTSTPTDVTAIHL
T2 sequence (Q00534 whole entry): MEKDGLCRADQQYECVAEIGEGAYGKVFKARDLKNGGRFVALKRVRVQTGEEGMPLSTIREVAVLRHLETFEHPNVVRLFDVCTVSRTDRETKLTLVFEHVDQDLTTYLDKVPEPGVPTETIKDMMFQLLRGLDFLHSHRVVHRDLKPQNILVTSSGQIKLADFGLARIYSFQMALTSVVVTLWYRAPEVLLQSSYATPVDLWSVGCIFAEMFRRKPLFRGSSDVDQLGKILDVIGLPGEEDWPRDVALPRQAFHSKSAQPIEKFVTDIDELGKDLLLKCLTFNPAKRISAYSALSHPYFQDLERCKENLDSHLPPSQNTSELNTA
T2 sequence (P30281 whole entry partner): as the sequence (P30281 whole entry partner) above

Turning to “8′-cyclopentyl-2′-(5-(4-ethyl-1-piperazinyl)-pyridin-2-amino)spiro[cycloprop-1,6′-pyrimido[5,4-b][1,4]oxazin]-7′(8′H)-one [Compound I-25]”, the IC50 in assay [1] and in assay [2] was at most 20 nM in each case.
In the case of `CC(C)N1C(=O)C(C)(C)Oc2cnc(Nc3ccc(N4CCNCC4)cn3)nc21` [Compound I-1, 6,6-Dimethyl-8-isopropyl-2-(5-(1-piperazinyl)-pyridin-2-amino)-6H-pyrimido[5,4-b][1,4]oxazin-7(8H)-one], the IC50 in assay [1] and in assay [2] was at most 20 nM throughout.
On to `CC1(C)Oc2cnc(Nc3ccc(N4CCNCC4)cn3)nc2N(C2CCCC2)C1=O` [Compound I-2, 6,6-Dimethyl-8-cyclopentyl-2-(5-(1-piperazinyl)-pyridin-2-amino)-6H-pyrimido[5,4-b][1,4]oxazin-7(8H)-one], for which the IC50 in assay [1] and in assay [2] was at most 20 nM throughout.
For the compound `CCN1CCN(Cc2ccc(Nc3ncc4c(n3)N(C3CCCC3)C(=O)C(C)(C)O4)nc2)CC1` [Compound I-3, 6,6-Dimethyl-8-cyclopentyl-2-(5-(4-ethyl-1-piperazinyl)methyl-pyridin-2-amino)-6H-pyrimido[5,4-b][1,4]oxazin-7(8H)-one], the IC50 in assay [1] and in assay [2] was at most 20 nM in each case.
On to `O=C1N(C2CCCC2)c2nc(Nc3ccc(N4CCNCC4)cn3)ncc2OC12CC2` [Compound I-4, 8′-cyclopentyl-2′-(5-(1-piperazinyl)-pyridin-2-amino)spiro[cycloprop-1,6′-pyrimido[5,4-b][1,4]oxazin]-7′(8′H)-one], for which the values for the IC50 in assay [1] and in assay [2] were at most 20 nM and 20 to 100 nM, respectively.
Regarding `O=C1N(C2CCCC2)c2nc(Nc3ccc(N4CCNCC4)cn3)ncc2OC12CCC2` [Compound I-5, 8′-cyclopentyl-2′-(5-(1-piperazinyl)-pyridin-2-amino)spiro[cyclobut-1,6′-pyrimido[5,4-b][1,4]oxazin]-7′(8′H)-one], the IC50 was at most 20 nM in assay [1] and 20 to 100 nM in assay [2].
The corresponding values for `O=C1N(C2CCCC2)c2nc(Nc3ccc(N4CCNCC4)cn3)ncc2OC12CCCC2` [Compound I-6, 8′-cyclopentyl-2′-(5-(1-piperazinyl)-pyridin-2-amino)spiro[cyclopenta-1,6′-pyrimido[5,4-b][1,4]oxazin]-7′(8′H)-one] are at most 20 nM and 20 to 100 nM.
For `O=C1N(C2CCCC2)c2nc(Nc3ccc(N4CCNCC4)cn3)ncc2OC12CCCCC2` [Compound I-7, 8′-cyclopentyl-2′-(5-(1-piperazinyl)-pyridin-2-amino)spiro[cyclohex-1,6′-pyrimido[5,4-b][1,4]oxazin]-7′(8′H)-one], the IC50 in assay [1] and in assay [2] was at most 20 nM throughout.
For the compound `O=C1N(C2CCCC2)c2nc(Nc3ccc(N4CCNCC4)cn3)ncc2OC12CCCCCC2` [Compound I-8, 8′-cyclopentyl-2′-(5-(1-piperazinyl)-pyridin-2-amino)spiro[cyclohepta-1,6′-pyrimido[5,4-b][1,4]oxazin]-7′(8′H)-one], the IC50 in assay [1] is at most 20 nM; in assay [2], 20 to 100 nM.
The like results for `CC(=O)C1Oc2cnc(Nc3ccc(N4CCNCC4)cn3)nc2N(C2CCCC2)C1=O` (stereo not drawn) [Compound I-9, 6-acetyl-8-cyclopentyl-2-(5-(1-piperazinyl)-pyridin-2-amino)-6H-pyrimido[5,4-b][1,4]oxazin-7(8H)-one] were, in that order, at most 20 nM and 20 to 100 nM.
Regarding `N#CC1Oc2cnc(Nc3ccc(N4CCNCC4)cn3)nc2N(C2CCCC2)C1=O` (stereo not drawn) [Compound I-10, 6-cyano-8-cyclopentyl-2-(5-(1-piperazinyl)-pyridin-2-amino)-6H-pyrimido[5,4-b][1,4]oxazin-7(8H)-one], the IC50 was at most 20 nM in assay [1] and 100 to 500 nM in assay [2].
For the compound `O=C1C(C(F)(F)F)Oc2cnc(Nc3ccc(N4CCNCC4)cn3)nc2N1C1CCCC1` (stereo not drawn) [Compound I-11, 6-trifluoromethyl-8-cyclopentyl-2-(5-(1-piperazinyl)-pyridin-2-amino)-6H-pyrimido[5,4-b][1,4]oxazin-7(8H)-one], the values for the IC50 in assay [1] and in assay [2] were at most 20 nM and 20 to 100 nM, respectively.
On to `O=C1N(C2CCCC2)c2nc(Nc3ccc(N4CCNCC4)cn3)ncc2OC1(F)F` [Compound I-12, 6,6-difluoro-8-cyclopentyl-2-(5-(1-piperazinyl)-pyridin-2-amino)-6H-pyrimido[5,4-b][1,4]oxazin-7(8H)-one], for which the values for the concentration for half-maximal inhibition (IC50) in assay [1] and in assay [2] were at most 20 nM and 20 to 100 nM, respectively.
Consider `O=C1C(C2CC2)Oc2cnc(Nc3ccc(N4CCNCC4)cn3)nc2N1C1CCCC1` (stereo not drawn) [Compound I-13, 6-cyclopropyl-8-cyclopentyl-2-(5-(1-piperazinyl)-pyridin-2-amino)-6H-pyrimido[5,4-b][1,4]oxazin-7(8H)-one], for which the IC50 in assay [1] and in assay [2] was at most 20 nM each time.
In the case of `CCN1CCN(Cc2ccc(Nc3ncc4c(n3)N(C3CCCC3)C(=O)C(C3CCC3)O4)nc2)CC1` (stereo not drawn) [Compound I-14, 6-cyclobutyl-8-cyclopentyl-2-(5-(4-ethyl-1-piperazinyl)methyl-pyridin-2-amino)-6H-pyrimido[5,4-b][1,4]oxazin-7(8H)-one], the IC50 in assay [1] and in assay [2] was at most 20 nM throughout.
As for `CCN1CCN(Cc2ccc(Nc3ncc4c(n3)N(C)C(=O)C(C(C)C)O4)nc2)CC1` (stereo not drawn) [Compound I-15, 6-isopropyl-8-methyl-2-(5-(4-ethyl-1-piperazinyl)methyl-pyridin-2-amino)-6H-pyrimido[5,4-b][1,4]oxazin-7(8H)-one], the IC50 in assay [1] was at most 20 nM; in assay [2] it was 20 to 100 nM.
Consider `CCN1C(=O)C(C)(CC)Oc2cnc(Nc3ccc(CN4CCN(C)CC4)cn3)nc21` (stereo not drawn) [Compound I-16, 6-methyl-6,8-diethyl-2-(5-(4-methyl-1-piperazinyl)methyl-pyridin-2-amino)-6H-pyrimido[5,4-b][1,4]oxazin-7(8H)-one], for which the IC50 in assay [1] and in assay [2] was at most 20 nM each time.
For the compound `CCC(C)N1C(=O)C(C2CCCC2)Sc2cnc(Nc3ccc(CN4CCNCC4)cn3)nc21` (stereo not drawn) [Compound I-17, 6-cyclopentyl-8-sec-butyl-2-(5-(1-piperazinyl)methyl-pyridin-2-amino)-6H-pyrimido[5,4-b][1,4]thiazin-7(8H)-one], the IC50 in assay [1] is at most 20 nM; in assay [2] it was above 500 nM.
Regarding `CCC(C)(C)N1C(=O)C(C2CCCCC2)Oc2cnc(Nc3ccc(CN4CCN(C5CC5)CC4)cn3)nc21` (stereo not drawn) [Compound I-18, 6-cyclohexyl-8-tert-amyl-2-(5-(4-cyclopropyl-1-piperazinyl)methyl-pyridin-2-amino)-6H-pyrimido[5,4-b][1,4]oxazin-7(8H)-one], the IC50 in assay [1] and in assay [2] was at most 20 nM each time.
Regarding `CCCN1CCN(Cc2ccc(Nc3ncc4c(n3)N(C(C)C(C)C)C(=O)C(C3CCCCCC3)S4)nc2)CC1` (stereo not drawn) [Compound I-19, 6-cycloheptyl-8-(3-methyl-2-butyl)-2-(5-(4-n-propyl-1-piperazinyl)methyl-pyridine-2-amino)-6H-pyrimido[5,4-b][1,4]thiazin-7(8H)-one], the IC50 in assay [1] is at most 20 nM; in assay [2] it was 20 to 100 nM.
Take `CC1(C)Oc2cnc(Nc3ccc(N4CCN(C5CCC5)CC4)cn3)nc2N(C2CCCC2)C1=O` [Compound I-20, 6,6-dimethyl-8-cyclopentyl-2-(5-(4-cyclobutyl-1-piperazinyl)-pyridin-2-amino)-6H-pyrimido[5,4-b][1,4]oxazin-7(8H)-one]: the IC50 in assay [1] and in assay [2] was at most 20 nM throughout.

One may read the IC50 as the point on the concentration scale where inhibition reaches its midpoint.

(Values after patent publication US10351578B2, “Heterocyclic-substituted pyridinopyrimidinone derivative as CDK inhibitor and use thereof” (Shanghai Xunhe Pharmaceutical Technology Co. Ltd., priority 2016, dated 2019).)
